{"source": "ChEMBL document CHEMBL1201862", "about": "“PubChem BioAssay data set” (2004)", "key": {"[1]": {"target": "Muscarinic acetylcholine receptor M1 (Rattus norvegicus, UniProt P08482)", "sequence (P08482 whole entry)": "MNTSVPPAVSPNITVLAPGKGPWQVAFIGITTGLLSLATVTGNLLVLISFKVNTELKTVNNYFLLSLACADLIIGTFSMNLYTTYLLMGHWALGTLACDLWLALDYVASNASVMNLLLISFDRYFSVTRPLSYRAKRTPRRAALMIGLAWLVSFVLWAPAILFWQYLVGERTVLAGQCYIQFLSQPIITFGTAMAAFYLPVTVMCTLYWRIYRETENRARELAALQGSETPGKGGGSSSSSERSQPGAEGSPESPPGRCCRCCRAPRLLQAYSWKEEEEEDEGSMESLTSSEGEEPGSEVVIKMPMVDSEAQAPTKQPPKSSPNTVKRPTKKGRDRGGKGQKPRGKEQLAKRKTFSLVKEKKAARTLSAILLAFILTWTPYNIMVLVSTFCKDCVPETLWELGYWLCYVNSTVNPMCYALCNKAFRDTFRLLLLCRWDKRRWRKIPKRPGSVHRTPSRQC", "test": "rat M1 positive allosteric modulator potency, dose response, cell-based, calcium mobilization, CHO-K1, ACh EC20 (AID 2425)", "format": "functional"}, "[2]": {"test": "cytotoxicity toward NIH3T3 fibroblasts, dose response, counter-screen, cell-based, ATP luminescence, mouse fibroblasts (AID 2010);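 note: cells exposed to compound for about 90 hours before reading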", "format": "functional"}, "[3]": {"test": "Luminescent dose response cell-based high throughput screening assay for inhibitors of the Janus kinase 2 mutant JAK2V617F. [Related pubchem assays: 1446 (Primary screen.), 1521 (Confirmation assay.), 1486 (Counter screen.)]", "format": "functional"}, "[4]": {"test": "inhibitors of intracellular T. cruzi replication, confirmation, NIH3T3 host cells, beta-gal luminescence (AID 2044);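 note: luminescent beta-galactosidase reporter signal from transgenic T. cruzi replicating inside host cells; inhibitors lower the luminescence signal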", "format": "functional, cell-based"}, "[5]": {"test_system": "HEK293", "test": "inhibitors of LMP1-driven NF-kB reporter, dose response, cell-based, HEK293, luciferase, cherry-pick (AID 588343)", "format": "functional", "conditions": "Homo sapiens"}, "[6]": {"target": "ATP-binding cassette sub-family B member 6 (Homo sapiens, UniProt Q9NP58)", "sequence (Q9NP58 whole entry)": "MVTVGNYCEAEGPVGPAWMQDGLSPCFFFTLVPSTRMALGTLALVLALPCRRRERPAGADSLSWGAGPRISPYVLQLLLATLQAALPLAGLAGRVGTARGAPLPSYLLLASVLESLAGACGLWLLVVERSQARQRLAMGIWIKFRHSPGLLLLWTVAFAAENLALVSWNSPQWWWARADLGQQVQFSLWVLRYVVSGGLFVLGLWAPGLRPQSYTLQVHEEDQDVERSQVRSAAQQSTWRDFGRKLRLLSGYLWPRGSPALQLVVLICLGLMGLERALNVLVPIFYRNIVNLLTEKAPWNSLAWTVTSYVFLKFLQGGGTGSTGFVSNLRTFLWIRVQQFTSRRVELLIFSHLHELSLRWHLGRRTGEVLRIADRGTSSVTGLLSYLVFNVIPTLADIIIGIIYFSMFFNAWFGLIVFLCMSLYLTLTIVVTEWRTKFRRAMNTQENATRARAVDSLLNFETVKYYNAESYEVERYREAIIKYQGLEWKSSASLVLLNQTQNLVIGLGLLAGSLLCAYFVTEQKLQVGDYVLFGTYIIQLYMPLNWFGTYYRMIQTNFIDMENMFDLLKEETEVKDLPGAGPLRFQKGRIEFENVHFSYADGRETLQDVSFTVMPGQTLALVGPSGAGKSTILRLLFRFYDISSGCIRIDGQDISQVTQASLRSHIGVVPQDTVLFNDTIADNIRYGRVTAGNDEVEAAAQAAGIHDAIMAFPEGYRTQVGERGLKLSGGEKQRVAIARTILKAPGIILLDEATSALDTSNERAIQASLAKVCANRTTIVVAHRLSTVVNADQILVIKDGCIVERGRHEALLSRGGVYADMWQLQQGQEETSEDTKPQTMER", "test": "ABCB6 transporter inhibitors, dose response, K562-ABCB6 cells, flow cytometry, cherry pick 1 (AID 623955)", "format": "functional", "conditions": "read-out: EC50_MICROM"}, "[7]": {"target": "Solute carrier family 12 member 2/member 5 (Homo sapiens, UniProt P55011+Q9H2X9)", "test": "KCC2 and NKCC1 inhibition by rubidium flux, cell-based, NKCC1 counter-screen (AID 1734)", "format": "functional, HEK293"}, "[8]": {"test": "inhibitors of firefly luciferase expression or activity, dose response, H4 neuroglioma cells, luminescence (AID 1990)", "format": "functional, cell-based"}, "[9]": {"target": "RNA-editing ligase 1, mitochondrial (Trypanosoma brucei brucei, UniProt P86926)", "sequence (P86926 whole entry)": "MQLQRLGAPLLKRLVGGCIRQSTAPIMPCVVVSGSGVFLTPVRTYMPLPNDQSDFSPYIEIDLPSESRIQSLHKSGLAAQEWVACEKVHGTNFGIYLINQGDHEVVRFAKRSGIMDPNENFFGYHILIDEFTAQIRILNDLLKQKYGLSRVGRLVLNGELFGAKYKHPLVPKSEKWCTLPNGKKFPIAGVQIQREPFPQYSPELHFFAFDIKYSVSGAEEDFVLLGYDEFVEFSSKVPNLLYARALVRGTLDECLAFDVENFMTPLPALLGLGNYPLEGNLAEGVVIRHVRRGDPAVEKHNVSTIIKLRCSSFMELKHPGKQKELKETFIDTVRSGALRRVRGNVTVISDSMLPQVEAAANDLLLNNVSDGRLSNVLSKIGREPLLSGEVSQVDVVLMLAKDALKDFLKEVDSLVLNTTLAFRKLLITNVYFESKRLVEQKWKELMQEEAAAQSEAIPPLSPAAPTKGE", "test": "TbREL1 ligase inhibitors, dose response, biochemical, fluorescence, Trypanosoma brucei (AID 1117295)", "format": "functional"}, "[10]": {"test": "inhibitors of SNCA 5'UTR-driven reporter translation, confirmation, H4 neuroglioma cells, luminescence (AID 1988)", "format": "functional, cell-based"}, "[11]": {"test": "Luminescence Cell-Based Dose Response HTS to Identify Inhibitors of 5'UTR Stem-Loop Driven Prion Protein mRNA Translation in H4 Neuroglioblastoma Cells. [Related pubchem assays: 1827 (Project Summary), 1813 (Primary HTS)]", "format": "functional"}, "[12]": {"target": "Bifunctional protein GlmU (Mycobacterium tuberculosis, UniProt P9WMN3)", "sequence (P9WMN3 whole entry)": "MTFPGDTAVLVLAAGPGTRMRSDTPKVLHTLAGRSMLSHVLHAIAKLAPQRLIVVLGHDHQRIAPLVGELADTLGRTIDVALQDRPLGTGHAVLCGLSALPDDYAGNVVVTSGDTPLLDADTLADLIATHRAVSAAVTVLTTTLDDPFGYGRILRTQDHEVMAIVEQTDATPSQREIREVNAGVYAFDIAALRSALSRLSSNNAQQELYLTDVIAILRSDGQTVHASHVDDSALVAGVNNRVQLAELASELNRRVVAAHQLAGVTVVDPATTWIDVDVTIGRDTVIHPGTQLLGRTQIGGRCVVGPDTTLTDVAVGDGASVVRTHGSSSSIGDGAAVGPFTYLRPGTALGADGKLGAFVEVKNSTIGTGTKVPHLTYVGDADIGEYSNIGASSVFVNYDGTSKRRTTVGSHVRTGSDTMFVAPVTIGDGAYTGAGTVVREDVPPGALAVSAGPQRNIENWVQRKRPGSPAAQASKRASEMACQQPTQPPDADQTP", "test": "Inhibitors of Mycobacterial Glucosamine-1-phosphate acetyl transferase (GlmU). Secondary screen.", "set-up": "species or system Mycobacterium tuberculosis H37Rv"}, "[13]": {"target": "Induced myeloid leukemia cell differentiation protein Mcl-1 (Homo sapiens, UniProt Q07820)", "sequence (Q07820 whole entry)": "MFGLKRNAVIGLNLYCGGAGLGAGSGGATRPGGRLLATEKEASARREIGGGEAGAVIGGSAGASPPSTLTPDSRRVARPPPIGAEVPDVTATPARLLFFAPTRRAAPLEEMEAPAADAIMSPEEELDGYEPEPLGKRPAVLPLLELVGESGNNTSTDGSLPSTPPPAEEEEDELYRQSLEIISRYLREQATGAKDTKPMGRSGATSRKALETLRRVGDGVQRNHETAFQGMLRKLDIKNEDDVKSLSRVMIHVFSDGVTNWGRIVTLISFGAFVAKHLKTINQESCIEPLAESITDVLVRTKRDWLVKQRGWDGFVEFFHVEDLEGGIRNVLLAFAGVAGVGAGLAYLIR", "format": "functional"}, "[14]": {"target": "Galanin receptor type 2 (Homo sapiens, UniProt O43603)", "sequence (O43603 whole entry)": "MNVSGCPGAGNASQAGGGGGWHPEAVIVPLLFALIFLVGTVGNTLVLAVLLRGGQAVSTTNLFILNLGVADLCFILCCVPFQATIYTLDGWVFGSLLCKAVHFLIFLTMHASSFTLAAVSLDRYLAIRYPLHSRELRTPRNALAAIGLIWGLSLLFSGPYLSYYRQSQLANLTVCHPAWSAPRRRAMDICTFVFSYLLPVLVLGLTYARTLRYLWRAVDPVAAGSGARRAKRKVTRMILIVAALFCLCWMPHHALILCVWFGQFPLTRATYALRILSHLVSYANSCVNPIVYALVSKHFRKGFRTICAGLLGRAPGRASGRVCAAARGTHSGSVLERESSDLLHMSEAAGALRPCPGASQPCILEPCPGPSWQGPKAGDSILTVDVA", "test": "Dose Response cell-based high-throughput screening assay to identify antagonists of galanin receptor 2 (GALR2). [Related pubchem assays: 828, 866 ]", "format": "functional"}, "[15]": {"target": "5-hydroxytryptamine receptor 1A (Homo sapiens, UniProt P08908)", "sequence (P08908 whole entry)": "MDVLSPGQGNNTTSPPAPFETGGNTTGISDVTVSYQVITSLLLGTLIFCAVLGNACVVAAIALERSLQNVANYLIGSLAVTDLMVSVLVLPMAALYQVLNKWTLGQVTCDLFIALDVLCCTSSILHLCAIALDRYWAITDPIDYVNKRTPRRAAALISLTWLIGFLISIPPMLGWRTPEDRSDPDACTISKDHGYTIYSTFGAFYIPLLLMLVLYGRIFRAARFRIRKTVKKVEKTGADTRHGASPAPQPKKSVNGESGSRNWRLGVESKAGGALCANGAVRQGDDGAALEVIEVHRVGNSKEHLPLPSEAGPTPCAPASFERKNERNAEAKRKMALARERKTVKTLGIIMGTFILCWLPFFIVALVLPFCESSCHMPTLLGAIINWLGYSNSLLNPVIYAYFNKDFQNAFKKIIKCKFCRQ", "format": "functional"}}, "note": "Activity calls are given as the source filed them."}
{"smiles": "Cn1cc(-c2ccc(CN3C(=O)C(=O)c4cccc(F)c43)c(F)c2)cn1", "values": [{"measurement": "EC50", "setting": "[1]", "result": "2.32 µM (active)"}]}
{"smiles": "CCN(CC)S(=O)(=O)c1cccc(N2C(=O)/C(=C\\Nc3ccccc3C(=O)O)c3ccccc3C2=O)c1", "values": [{"measurement": "EC50", "setting": "[2]", "result": "> 60 µM (not active)"}, {"measurement": "IC50", "setting": "[3]", "result": "> 40 µM (not active)"}, {"measurement": "EC50", "setting": "[4]", "result": "13.7 µM (active)"}, {"measurement": "AC50", "setting": "[5]", "result": "0.167 µM (active)"}, {"measurement": "EC50", "setting": "[6]", "result": "0.21 µM (active)"}]}
{"smiles": "O=C(Nc1ccc(S(=O)(=O)NCc2ccccc2)cc1)c1ccccc1[N+](=O)[O-]", "values": [{"measurement": "IC50", "setting": "[7]", "result": "5.1 µM (active)"}]}
{"smiles": "O=c1cc(CN2CCc3ccccc32)nc2sccn12", "values": [{"measurement": "EC50", "setting": "[8]", "result": "18.2 µM (active)"}, {"measurement": "IC50", "setting": "[9]", "result": "22.9 µM (inactive)"}, {"measurement": "EC50", "setting": "[10]", "result": "10.9 µM (active)"}, {"measurement": "EC50", "setting": "[11]", "result": "0.231 µM (active)"}]}
{"smiles": "O=c1c(C(c2ccccn2)c2c(O)oc3ccccc3c2=O)c(O)oc2ccccc12", "values": [{"measurement": "IC50", "setting": "[12]", "result": "152 µM (active)"}]}
{"smiles": "CCCOc1[nH]cnc2c3ccccc3nc1-2", "values": [{"measurement": "IC50", "setting": "[13]", "result": "19.6 µM (not active)"}, {"measurement": "IC50", "setting": "[14]", "result": "> 42 µM (not active)"}]}
{"smiles": "Cc1[nH]c2c(Cl)cccc2c1CCN", "values": [{"measurement": "EC50", "setting": "[15]", "result": "> 50 µM (not active)"}]}
